Source: patent publication US12448369B2 (Edgewise Therapeutics, Inc., priority 2023, dated 2025)
Marks after values point to notes of the source that are not given here.

Columns and labels:
[1] = test system: Rabbit Psoas myofibrils (skeletal myosin ATPase); test: Myofibril ATPase assay, rabbit psoas (skeletal) myofibrils; assay type: biochemical; details: rabbit psoas myofibrils
Summary of the method: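 Readout: A340 decline from NADH oxidation, PK/LDH-coupled to ADP release; kinetic reads over 75 min. Buffer: pCa (PIPES, CaCl2, EGTA), pH 7.0. Linear-regression slopes vs vehicle, 4PL fit; reported as concentration giving 75% (Y75) or 125% (Y125) of vehicle activity.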

[2] = target: T1, Porcine ventricle myofibrils (ventricular myosin ATPase) (Sus scrofa, UniProt P79293); test: Myofibril ATPase assay, porcine ventricle myofibrils; assay type: biochemical, porcine (Yucatan minipigs); details: porcine ventricle myofibrils
T1 construct: Myofibrils from porcine cardiac muscle was isolated from the left ventricle of Yucatan minipigs; tissue Exemplar Genetics; host or cells: left ventricle of Yucatan minipigs, myofibrils prepared in house
T1 sequence (P79293 whole entry): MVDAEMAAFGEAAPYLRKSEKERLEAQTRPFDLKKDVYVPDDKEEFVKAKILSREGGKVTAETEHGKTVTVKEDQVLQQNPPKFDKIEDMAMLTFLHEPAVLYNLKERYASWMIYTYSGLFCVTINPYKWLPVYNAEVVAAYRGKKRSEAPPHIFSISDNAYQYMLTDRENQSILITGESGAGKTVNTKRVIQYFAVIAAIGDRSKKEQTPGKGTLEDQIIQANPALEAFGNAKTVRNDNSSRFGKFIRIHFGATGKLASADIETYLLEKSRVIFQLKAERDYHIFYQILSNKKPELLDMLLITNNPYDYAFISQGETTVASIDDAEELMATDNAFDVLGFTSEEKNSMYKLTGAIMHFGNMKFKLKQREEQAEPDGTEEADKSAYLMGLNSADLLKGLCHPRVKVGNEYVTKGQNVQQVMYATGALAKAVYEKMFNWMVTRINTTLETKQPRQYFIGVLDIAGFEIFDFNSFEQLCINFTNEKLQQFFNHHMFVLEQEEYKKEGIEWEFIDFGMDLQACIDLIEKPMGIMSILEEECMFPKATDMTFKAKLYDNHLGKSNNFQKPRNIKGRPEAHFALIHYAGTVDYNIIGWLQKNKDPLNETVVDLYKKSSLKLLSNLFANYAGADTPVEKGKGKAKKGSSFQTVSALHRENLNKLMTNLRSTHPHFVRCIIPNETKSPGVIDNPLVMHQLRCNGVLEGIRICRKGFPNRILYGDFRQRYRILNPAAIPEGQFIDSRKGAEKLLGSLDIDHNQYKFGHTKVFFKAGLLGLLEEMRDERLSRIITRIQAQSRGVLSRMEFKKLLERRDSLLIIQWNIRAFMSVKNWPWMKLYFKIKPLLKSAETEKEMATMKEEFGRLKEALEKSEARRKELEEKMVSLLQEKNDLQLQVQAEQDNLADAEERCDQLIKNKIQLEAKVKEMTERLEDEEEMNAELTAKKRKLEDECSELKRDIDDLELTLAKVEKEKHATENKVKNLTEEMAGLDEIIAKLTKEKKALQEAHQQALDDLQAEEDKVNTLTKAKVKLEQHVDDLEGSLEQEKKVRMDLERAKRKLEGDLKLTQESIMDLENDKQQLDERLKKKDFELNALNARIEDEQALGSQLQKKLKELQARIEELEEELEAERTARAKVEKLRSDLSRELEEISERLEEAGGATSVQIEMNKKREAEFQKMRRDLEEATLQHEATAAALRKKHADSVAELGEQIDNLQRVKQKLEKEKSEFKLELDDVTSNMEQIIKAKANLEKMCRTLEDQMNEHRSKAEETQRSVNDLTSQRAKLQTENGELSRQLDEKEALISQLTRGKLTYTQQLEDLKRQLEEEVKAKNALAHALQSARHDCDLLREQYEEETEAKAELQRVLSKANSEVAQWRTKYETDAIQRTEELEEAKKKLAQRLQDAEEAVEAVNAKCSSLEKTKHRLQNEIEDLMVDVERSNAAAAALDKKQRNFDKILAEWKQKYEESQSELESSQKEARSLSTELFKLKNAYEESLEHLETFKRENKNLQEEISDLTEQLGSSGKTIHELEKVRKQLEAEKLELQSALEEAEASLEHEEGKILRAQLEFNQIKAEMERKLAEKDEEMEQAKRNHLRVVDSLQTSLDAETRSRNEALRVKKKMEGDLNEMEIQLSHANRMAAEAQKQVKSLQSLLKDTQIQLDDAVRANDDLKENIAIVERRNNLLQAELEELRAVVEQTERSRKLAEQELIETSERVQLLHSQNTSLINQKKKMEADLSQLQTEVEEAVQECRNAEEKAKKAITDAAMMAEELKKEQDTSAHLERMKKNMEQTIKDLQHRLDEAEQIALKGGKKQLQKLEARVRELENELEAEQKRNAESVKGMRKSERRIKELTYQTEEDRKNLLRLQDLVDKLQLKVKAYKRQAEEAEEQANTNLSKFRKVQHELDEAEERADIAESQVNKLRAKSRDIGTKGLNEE
Summary of the method: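 ATPase activity of porcine left-ventricular myofibrils is tracked as the slope of NADH loss at 340 nm through a PK/LDH couple. Values are the concentrations that bring activity to 75% (inhibitors) or 125% (activators) of vehicle.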

[3] = test system: Porcine atria myofibrils (atrial myosin ATPase); test: Myofibril ATPase assay, porcine atria myofibrils; assay type: biochemical; details: porcine atria myofibrils
Summary of the method: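 Coupled PK-LDH readout, NADH loss at 340 nm, kinetic 75 min. Porcine atria myofibrils, pCa buffer (PIPES/CaCl2/EGTA, pH 7.0). Slopes (mAU/min) normalized to vehicle = 100%, 4-parameter fit; Y75 or Y125 reported.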

[4] = Y75 value (75% activity relative to no compound)

SMILES	Skeletal EC25 ([1]; Y75 value (no ‡ mark)) [nM]	Ventricular EC25 ([2]; Y75 value (no ‡ mark)) [nM]	Atrial EC25 ([3]; Y75 value (no ‡ mark)) [nM]	Skeletal EC25 ([1]; Y75 value) [nM]	Ventricular EC25 ([2]; Y75 value) [nM]	Atrial EC25 [3, 4] [nM]	Skeletal EC25 (Y125 value, marked ‡) ([1]; Y125 value, not a Y75 value)
N#Cc1cnc2c(c1)CC[C@H]2NC(=O)Cc1cc2c(F)c(F)ccc2[nH]c1=O (single isomer, unassigned) [compound 7]	810	1270	3800				
COc1ccc2[nH]c(=O)c(CC(=O)N[C@@H](C)c3ccc(F)cc3F)c(C)c2n1 [compound 409]				30	590	40	
C[C@H](NC(=O)Cc1c(C(F)(F)F)c2c(C3CC3)nccc2[nH]c1=O)c1ncc(C#N)cn1 (single isomer, unassigned) [compound 3002]				100000	100000	100000	
Cc1c(C2(C(=O)N[C@@H](C)c3ncc(C#N)cc3F)CC2)c(=O)[nH]c2ccc(F)cc12 (single isomer, unassigned) [compound 2597]	120	390	90				
C[C@H](NC(=O)Cc1c(C#N)c2cc(F)ccc2[nH]c1=O)c1ncc(C#N)cc1F [compound 1095]	60	420	180				
Cc1c(CC(=O)N[C@H](CO)c2ccc(F)cc2F)c(=O)[nH]c2ccc(C(F)(F)F)nc12 [compound 216]				100000	100000	100000	
Cc1c(C2(C(=O)N[C@H](C)c3ncc(C#N)cn3)CC2)c(=O)[nH]c2ccc(F)cc12 (single isomer, unassigned) [compound 2590]	1300	3410	430				
Cc1c(CC(=O)N[C@H](C)c2ncc(C#N)cc2F)c(=O)[nH]c2ccc(F)c(Cl)c12 (single isomer, unassigned) [compound 2051]	160	600	430				
Cc1cc([C@H](C)NC(=O)Cc2c(O)c3c(C)c(F)ccc3[nH]c2=O)ncc1F [compound 1117]	100000	46610	100000				
Cc1cc(C#N)nnc1[C@H](C)NC(=O)Cc1c(C)c2c(F)c(F)ccc2[nH]c1=O [compound 1136]	50	120	140				
Cc1c(CC(=O)N[C@@H](C)c2ncc(C3COC3)cn2)c(=O)[nH]c2ccc(F)c(F)c12 (single isomer, unassigned) [compound 2044]	29360	5840	9190				
CCCOc1nccc2[nH]c(=O)c(CC(=O)N[C@@H](C)c3ccc(F)cc3F)c(C)c12 [compound 384]				40	11670	210	
Cc1c(F)ccc2[nH]c(=O)c(C(F)(F)C(=O)N[C@H](C)c3ncc(C#N)cc3F)c(C)c12 (single isomer, unassigned) [compound 4811]	590	460	730				
C[C@H](NC(=O)[C@H](C)c1cc2c(F)c(F)ccc2[nH]c1=O)c1ncc(C#N)cc1F (relative stereo) [compound 2604, (2R*)-N-[(1S)-1-(5-cyano-3-fluoropyridin-2-yl)ethyl]-2-(5,6-difluoro-2-oxo-1H-quinolin-3-yl)propanamide]	540	750	120				
Cc1nccc2[nH]c(=O)c([C@H](C)C(=O)N[C@@H](C)c3ccc(F)cc3F)cc12 (single isomer, unassigned) [compound 442]				12410	100000	100000	
Cc1c([C@H](C)C(=O)N[C@@H](C)c2ccc(F)cc2F)c(=O)[nH]c2ccnc(OC(F)(F)F)c12 (single isomer, unassigned) [compound 348]				510	6440	340	
Cc1nccc2[nH]c(=O)c(C(F)(F)C(=O)N[C@@H](CO)c3ncc(C#N)cc3F)c(C)c12 (single isomer, unassigned) [compound 3523]				8730	21660	9760	
Cc1nccc2[nH]c(=O)c(C3(C(=O)N[C@H](C)c4ncc(C#N)cc4F)CC3)c(C)c12 (single isomer, unassigned) [compound 3519]					17070	940	97.12‡ μM
